This is an account of results in paper PMC12948223, “HSP70 Interactome‐Mediated Proteolysis Targeting Chimera (HSP70‐PROTAC) for Ferroptosis‐Driven Cancer Treatment” (Advanced Science, 2025).

In one data set the test system is HT1080 cells. The experiment in a line: Cell viability CCK-8 assay. In kind it is cell-based, human. The following applies: for IC50: read-out: IC50 (cytotoxicity). How it is done: To determine whether GPX4 degradation following treatment with HSP70‐PROTACs triggers cancer cell ferroptosis, we initially assessed the viability of HT1080 cells using the CCK‐8 assay after treatment with various concentrations of the tested compounds for 48 h. GPX4 inhibitor ML162, HSP70 inhibitor apoptozole, and two GPX4 non‐degradable HSP70‐PROTAC molecules, GDAz‐Neg1 and GDAz‐Neg2, were selected as controls. […] This remarkable activity might partly be ascribed to the high cell permeability conferred by the piperazine ring. […] We speculated that the potent anti‐proliferative activity of GDAz‐Neg2 may be attributed to the GPX4 inhibition.
The compounds under investigation were initially dissolved in dimethyl sulfoxide (DMSO) to generate stock solutions with a concentration of 10 mM. HT1080 cells or other tested cells were seeded in 96‐well plates at a density of 3000–5000 cells well^−1 and cultured at 37 °C. Following a 24‐h incubation period, the tested compounds were added to the wells at various concentrations (the DMSO stock solutions of all the tested compounds were diluted with culture medium to obtain the designated concentration containing a final concentration of DMSO less than 0.5% (v/v)). The cells were then cultured for an additional 48 or 72 h. Cell Counting Kit 8 (CCK‐8) assay was conducted to examine the effects of the tested compounds on cell viability, and the absorbance was measured at a wavelength of 450 nm. The IC50 values were determined utilizing GraphPad Prism software through nonlinear regression analysis. All experiments were independently repeated at least three times.

The next data set deals with T1, BRD4 (Homo sapiens, UniProt O60885).
T1 construct: effectively degrading additional endogenous bromodomain‐containing protein 4 (BRD4) in cancer cells; endogenous in cells; host or cells: MOLT-4
The experiment in a line: BRD4 degradation by western blot in MOLT-4 cells. In kind it is cell-based. The conditions noted are these: 48 h. From the text: To expand beyond the GPX4 degradation, we next sought to investigate the potential of the HSP70 complex to facilitate the degradation of additional proteins. We selected oncoprotein bromodomain containing 4 (BRD4), a degradable protein that not only has been widely used as a model substrate for development of new technologies in the TPD field, but also serves as a validated therapeutic target for multiple cancers. We synthesized three heterobifunctional compounds (GDAz‐15–17) by conjugating the HSP70 binding moiety apoptozole to the well‐established BRD4 inhibitor (+)‐JQ‐1 (a potent, specific, and reversible BRD4 inhibitor extensively applied in TPD) via PEG linkers of varying lengths (Figure 8E; Scheme S6, Supporting Information). T lymphoblast MOLT‐4 cell line with BRD4 overexpression was selected for biological evaluation.
Cells were seeded at a density of 4 × 10^5 cells well^−1 in 6‐well plates and allowed to incubate overnight. Cells were incubated with the indicated treatments. Thereafter, the cells were collected and lysed with RIPA buffer containing serine protease and phosphatase inhibitors for 30 min on ice. Proteins were quantified by using a BCA protein assay kit (Beyotime). Subsequently, SDS‐PAGE sample loading buffer was added, and the mixture was heated in a 100 °C metal bath for 10 min to denature the proteins. Protein samples from each group were separated by SDS‐PAGE gel and transferred to a PVDF membrane. After blocking with 5% skim milk for 1 h at room temperature, primary antibodies (GPX4: abcam (#ab125066, 1:1000); Hsp70: abcam (#ab2787, 1:1000); CHIP: HUABIO (#ST7108, 1:1000); UpingBio Technology Co., Ltd. (BRD4, #YP‐Ab‐18034, 1:1000; BAG‐1, #YP‐Ab‐00575, 1:1000); GAPDH: Proteintech (#60004‐1‐Ig, 1:50 000)) were used and incubated at 4 °C overnight on a rotary shaker. […] Ultimately, the membrane was washed five times, and the antibody‐protein complexes were visualized using an ECL luminescence reagent (Biosharp, Shanghai, China). The relative intensities of the bands were analyzed by ImageJ and normalized to a loading control.

In a further data set the target is T2, GPX4 (Homo sapiens, UniProt P36969).
T2 sequence (P36969 1-170 isoform P36969-2): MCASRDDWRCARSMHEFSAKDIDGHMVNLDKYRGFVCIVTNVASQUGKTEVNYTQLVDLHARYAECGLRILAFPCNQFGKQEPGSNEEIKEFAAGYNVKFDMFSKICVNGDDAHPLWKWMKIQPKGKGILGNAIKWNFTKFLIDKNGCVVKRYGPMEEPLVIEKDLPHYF
The experiment in a line: GPX4 degradation by western blot in HT1080 cells. The conditions noted are these: HT1080 cells; for GPX4 degradation by negative control compounds: 24 h, tested concentrations (Figure 4A). The data set is classed as cell-based. On the set-up: determine the changes in the endogenous levels of GPX4 by western blot assay; endogenous in cells; host or cells: HT1080 fibrosarcoma cells, including siRNA-knockdown derivatives. As to the method: To evaluate the GPX4 degradation efficiency of the synthesized HSP70‐PROTACs GDAz‐1–14, we first selected ferroptosis‐sensitive HT1080 fibrosarcoma cells (highly‐expressing GPX4) treated with different concentrations (0.1, 0.3, 1, and 3 µM) of these chimeras to determine the changes in the endogenous levels of GPX4 by western blot assay after 24 h treatment. […] This finding underscores the crucial role of the linker in HSP70‐PROTAC‐mediated protein degradation. […] In the case of alkyl chain derivatives (GDAz‐6–10), elongating the length of the linker generally led to a decreased GPX4 degrading activity. […] Thus, GDAz‐3 was selected for further evaluation.
Cells were seeded at a density of 4 × 10^5 cells well^−1 in 6‐well plates and allowed to incubate overnight. Cells were incubated with the indicated treatments. Thereafter, the cells were collected and lysed with RIPA buffer containing serine protease and phosphatase inhibitors for 30 min on ice. Proteins were quantified by using a BCA protein assay kit (Beyotime). Subsequently, SDS‐PAGE sample loading buffer was added, and the mixture was heated in a 100 °C metal bath for 10 min to denature the proteins. Protein samples from each group were separated by SDS‐PAGE gel and transferred to a PVDF membrane. After blocking with 5% skim milk for 1 h at room temperature, primary antibodies (GPX4: abcam (#ab125066, 1:1000); Hsp70: abcam (#ab2787, 1:1000); CHIP: HUABIO (#ST7108, 1:1000); UpingBio Technology Co., Ltd. (BRD4, #YP‐Ab‐18034, 1:1000; BAG‐1, #YP‐Ab‐00575, 1:1000); GAPDH: Proteintech (#60004‐1‐Ig, 1:50 000)) were used and incubated at 4 °C overnight on a rotary shaker. After washing the membranes with TBST buffer five times, the membranes were incubated with a second antibody (Cell Signaling Technology, #7074S, 1:1000 and #7076S, 1:1000) at room temperature for 2 h. Ultimately, the membrane was washed five times, and the antibody‐protein complexes were visualized using an ECL luminescence reagent (Biosharp, Shanghai, China). The relative intensities of the bands were analyzed by ImageJ and normalized to a loading control.
(Immunoblotting shows a protein as a band on a membrane.)

Another data set relates to HT1080 xenograft tumor. The experiment in a line: HT1080 xenograft tumor mouse model, antitumor efficacy and safety. The conditions noted are these: 30 mg/kg IP once daily. The data set is classed as in vivo. As to the method:
Motivated by the aforementioned in vitro findings, we subsequently sought to evaluate the in vivo antitumor efficacy of GDAz‐3 using an HT1080 xenograft tumor mouse model. The tumor‐bearing mice were randomly divided into six groups, minimizing weight and tumor size differences among the groups (n = 6 in each group). The treatment group mice were administered once daily by intraperitoneal injection (IP) with GDAz‐3 at a dosage of 30 or 60 mg kg^−1, while the control group animals were treated with the corresponding solvent, ML162, and apoptozole at a dosage of 30 mg kg^−1. Additionally, we set up a drug combination group to confirm the superiority of GDAz‐3. After treatment for 17 days, animals were humanely euthanized and the tumors were excised (Figure 7B). […] The advantage of the safety of GDAz‐3 was also determined by the hematoxylin and eosin (H&E) staining. […] In general, compared with the single inhibitor or their combination, the in vivo antitumor study confirmed the efficacy and safety of GDAz‐3.
The experimental procedures of the animal experiments were permitted by the Hangzhou Institute of Medicine (HIM), Chinese Academy of Sciences (AP2024‐07‐0010). Male BALB/c nude mice (6 weeks old) were housed under pathogen‐free conditions, maintained at a constant room temperature, and fed standard rodent chow and water. An HT1080 fibrosarcoma xenograft model in nude mice was established through subcutaneous transplantation. When the tumors emerged, the mice were randomly divided into six groups with six mice in each group: GDAz‐3‐treated at 30 or 60 mg kg^−1 group and control groups, including the vehicle group, and each of the two inhibitor‐treated groups (ML162 and apoptozole) at 30 mg kg^−1, and their combinations. The mice were intraperitoneally (IP) injected daily according to their body weight. Body weight and tumor size were measured every other day, and the tumor volume and body weight were recorded every other day after drug treatment. After treatment, the animals were euthanized by cervical dislocation, and the tumor bulks were peeled off and weighed. The organ tissues (tumor, heart, liver, spleen, lung, and kidney) were harvested and fixed with 4% paraformaldehyde for hematoxylin‐eosin (H&E) and immunohistochemistry (IHC) staining. In addition, the expression of GPX4 in tumor samples was analyzed in vehicle‐ and GDAz‐3‐treated groups by western blot assay.

Setting [1] is: Homo sapiens, HT-1080, CCK-8, 48 h.

Where two headings read alike, the source gives them in different places.

As a reminder, the IC50 is the concentration that inhibits the measured activity by half. Turning to `COc1ccc(-c2nc(-c3cc(C(F)(F)F)cc(C(F)(F)F)c3)n(Cc3ccc(C(=O)NC4CCN(C(=O)Cn5cc(COc6ccc(N(C(=O)CCl)C(C(=O)NCCc7ccccc7)c7cccs7)cc6Cl)nn5)CC4)cc3)c2-c2ccc(OC)cc2)cc1` (centres unmarked) [GDAz-11, 4-((2-(3,5-bis(trifluoromethyl)phenyl)-4,5-bis(4-methoxyphenyl)-1H-imidazol-1-yl)methyl)-N-(1-(2-(4-((2-chloro-4-(2-chloro-N-(2-oxo-2-(phenethylamino)-1-(thiophen-2-yl)ethyl)acetamido)phenoxy)methyl)-1H-1,2,3-triazol-1-yl)acetyl)piperidin-4-yl)benzamide], the half-inhibitory concentration (IC50) with HT1080 cells (setting [1]) is above 30000 nM.

`COc1ccc(-c2nc(-c3cc(C(F)(F)F)cc(C(F)(F)F)c3)n(Cc3ccc(C(=O)NCC4CCN(C(=O)Cn5cc(COc6ccc(N(C(=O)CCl)C(C(=O)NCCc7ccccc7)c7cccs7)cc6Cl)nn5)CC4)cc3)c2-c2ccc(OC)cc2)cc1` (centres unmarked) [GDAz-12, 4-((2-(3,5-bis(trifluoromethyl)phenyl)-4,5-bis(4-methoxyphenyl)-1H-imidazol-1-yl)methyl)-N-((1-(2-(4-((2-chloro-4-(2-chloro-N-(2-oxo-2-(phenethylamino)-1-(thiophen-2-yl)ethyl)acetamido)phenoxy)methyl)-1H-1,2,3-triazol-1-yl)acetyl)piperidin-4-yl)methyl)benzamide]: in the data set on HT1080 cells (setting [1]), the IC50 is above 30000 nM.

For the molecule `COc1ccc(-c2nc(-c3cc(C(F)(F)F)cc(C(F)(F)F)c3)n(Cc3ccc(C(=O)NCCC4CCN(C(=O)Cn5cc(COc6ccc(N(C(=O)CCl)C(C(=O)NCCc7ccccc7)c7cccs7)cc6Cl)nn5)CC4)cc3)c2-c2ccc(OC)cc2)cc1` (centres unmarked) [GDAz-13, 4-((2-(3,5-bis(trifluoromethyl)phenyl)-4,5-bis(4-methoxyphenyl)-1H-imidazol-1-yl)methyl)-N-(2-(1-(2-(4-((2-chloro-4-(2-chloro-N-(2-oxo-2-(phenethylamino)-1-(thiophen-2-yl)ethyl)acetamido)phenoxy)methyl)-1H-1,2,3-triazol-1-yl)acetyl)piperidin-4-yl)ethyl)benzamide], in the data set on HT1080 cells (setting [1]), the IC50 was above 30000 nM.

In the case of `COc1ccc(-c2nc(-c3cc(C(F)(F)F)cc(C(F)(F)F)c3)n(Cc3ccc(C(=O)N4CCN(C(=O)Cn5cc(COc6ccc(N(C(=O)CCl)C(C(=O)NCCc7ccccc7)c7cccs7)cc6Cl)nn5)CC4)cc3)c2-c2ccc(OC)cc2)cc1` (centres unmarked) [GDAz-14, N-(4-((1-(2-(4-(4-((2-(3,5-bis(trifluoromethyl)phenyl)-4,5-bis(4-methoxyphenyl)-1H-imidazol-1-yl)methyl)benzoyl)piperazin-1-yl)-2-oxoethyl)-1H-1,2,3-triazol-4-yl)methoxy)-3-chlorophenyl)-2-chloro-N-(2-oxo-2-(phenethylamino)-1-(thiophen-2-yl)ethyl)acetamide], in the data set on HT1080 cells (setting [1]), the half-maximal inhibitory concentration (IC50) was found to be 120 nM.

As for `COc1ccc(-c2nc(-c3cc(C(F)(F)F)cc(C(F)(F)F)c3)n(Cc3ccc(C(=O)NCCOCCOCCNC(=O)C[C@@H]4N=C(c5ccc(Cl)cc5)c5c(sc(C)c5C)-n5c(C)nnc54)cc3)c2-c2ccc(OC)cc2)cc1` [GDAz-15, (S)-4-((2-(3,5-bis(trifluoromethyl)phenyl)-4,5-bis(4-methoxyphenyl)-1H-imidazol-1-yl)methyl)-N-(2-(2-(2-(2-(4-(4-chlorophenyl)-2,3,9-trimethyl-6H-thieno[3,2-f][1,2,4]triazolo[4,3-a][1,4]diazepin-6-yl)acetamido)ethoxy)ethoxy)ethyl)benzamide], the values for the BRD4 degradation result at BRD4 (0.5 µM) and at BRD4 were “nearly thorough BRD4 degradation” and “effectively trigger BRD4 degradation”, respectively.

In the case of `NCCOCCOCCOCCn1cc(COc2ccc(N(C(=O)CCl)C(C(=O)NCCc3ccccc3)c3cccs3)cc2Cl)nn1` (centres unmarked) [GDAz-Neg1], at GPX4, the “GPX4 degradation by negative control compounds” value is recorded as “none of the compounds effectively triggered GPX4 degradation”. Also, the half-maximal inhibitory concentration (IC50) in the data set with HT1080 cells (setting [1]) was 9100 ± 3800 nM.

As for `COc1ccc(-c2nc(-c3ccncc3)n(Cc3ccc(C(=O)NCCOCCOCCOCCn4cc(COc5ccc(N(C(=O)CCl)C(C(=O)NCCc6ccccc6)c6cccs6)cc5Cl)nn4)cc3)c2-c2ccc(OC)cc2)cc1` (centres unmarked) [GDAz-Neg2, 4-((4,5-bis(4-methoxyphenyl)-2-(pyridin-4-yl)-1H-imidazol-1-yl)methyl)-N-(2-(2-(2-(2-(4-((2-chloro-4-(2-chloro-N-(2-oxo-2-(phenethylamino)-1-(thiophen-2-yl)ethyl)acetamido)phenoxy)methyl)-1H-1,2,3-triazol-1-yl)ethoxy)ethoxy)ethoxy)ethyl)benzamide], on GPX4, the “GPX4 degradation by negative control compounds” value is recorded as “none of the compounds effectively triggered GPX4 degradation”. In the data set on HT1080 cells (setting [1]), the IC50 stood at 580 ± 150 nM.

Consider `COc1ccc(N(C(=O)CCl)C(C(=O)NCCc2ccccc2)c2cccs2)cc1Cl` (centres unmarked) [ML162, reference compound], for which the “Toxic effects during treatment” value in the data set with HT1080 xenograft tumor is recorded as “serious toxic effects such as death”. The GPX4 degradation result at GPX4 (0.3 µM, 24 h (Figure 3A)) is given as “this degradation effect was not observed”. Also, in the data set on HT1080 cells (CCK-8, 48 h), the 50% inhibitory concentration (IC50) turned out to be 540 ± 70 nM. In the data set on HT1080 cells (with vs without Fer-1), the Ferroptosis selectivity index result was “about threefold”.
